# Data: patent publication US10076522B2, “Systems and methods for treating bacterial infection” (priority 2016, dated 2018)
# Entries after “also recorded” stand apart in the source; their conditions may differ.
# Tests used:
# S. aureus = experiment: MIC90 in worldwide surveillance studies; assay type: cell-based; settings: Staphylococcus aureus
# Text: The ASSIST-1 and ASSIST-2 studies used sparse sampling with a population PK analysis. The post-hoc estimates of the individual subject PK parameters were used to simulate the plasma iclaprim concentration-time profiles for each subject and, from those profiles, the corresponding values for Cmaxss, AUC0-24hss, AUC/MIC, and T>MIC.
# [1] = test system: acute bacterial skin and skin structure infections (ABSSSIs) suspected or confirmed to be due to Gram-positive pathogens; experiment: Phase III REVIVE-1 study, efficacy of fixed dose iclaprim versus vancomycin; assay type: in vivo, human; settings: ITT; for non-inferiority (10% margin) compared to vancomycin: 80 mg over 2 hr q12h IV
# Experimental: Subjects were evaluated daily up to ETP, then every 48 to 72 hours through the end of treatment. If the last dose of study drug fell on a day when an evaluation was not planned, an additional evaluation visit was performed on that day (i.e., all EOT evaluations were performed on the last day [+2 days] of drug dose).
# The infusion time and duration of treatment for both groups was 2 hours and 5 days (minimum duration) to 14 days (maximum duration), respectively.
# The primary endpoint for clinical response (defined as the reduction in lesion size ≥20% compared to baseline) was evaluated in all randomized subjects at ETP (48 to 72 hours post-first dose). […] In addition, clinical outcome was evaluated by the investigator at EOT and TOC (7 to 14 days post EOT). The assessments of clinical outcome was categorized as cure, failure, or indeterminate.
# Iclaprim was administered at a dose of 80 mg in 500 mL normal saline, infused over 2 hours q12h (every 12 hours) for 5 to 14 days. For subjects with moderate hepatic impairment (Child-Pugh Class B), iclaprim was administered at a dose of 40 mg in 500 mL normal saline, infused over 2 hours q12h for 5 to 14 days.
# Dosing interval was every q12 h, q24 h, q48 h, or dosed by daily level based on creatinine clearance.
# The primary efficacy endpoint was the proportion of randomized subjects who achieved an early clinical response (defined as reduction in the lesion size ≥20% compared to baseline) at 48 to 72 hours (ETP) and was evaluated among all randomized subjects (ITT population).
# The NI bound were 10%. […] Equivalently, if the lower bound of the two-sided 95% CI for P1-P2 was greater than −0.100 based on the Z test with unpooled variance estimate, NI was concluded.
# [2] = PK of IV iclaprim in subjects with moderate hepatic impairment; assay type: in vivo, human; settings: moderate hepatic impairment (Child-Pugh grade B)
# Experimental: For example, the PK profile of 0.8 mg/kg iclaprim administered by IV was investigated in 8 subjects with mild to moderate obesity (body mass index or “BMI” 30-40) and in 8 subjects with severe obesity (BMI>40). […] Linear regression analysis indicated a strong linear relationship between AUC (and Cmax) and BMI. Thus it was clear that the body composition of the subject affected the pharmacokinetics of IV administered iclaprim, with a greater percentage of body fat causing an increase in AUC and Cmax. […] Thus there is a risk of overdosing subjects with moderate hepatic impairment, which can be mitigated by reducing the IV iclaprim dose by about 50%.
structure (smiles),measurement,setting,value
COc1cc(Cc2cnc(N)nc2N)c2c(c1OC)OC(C1CC1)C=C2 (racemic) [Iclaprim],MIC90,S. aureus,0.12 µg/mL
same,non-inferiority (10% margin) compared to vancomycin,[1]; ETP,achieved the primary endpoint of non-inferiority; also recorded: non-inferior
same,non-inferiority (10% margin) compared to vancomycin,[1]; TOC,achieved NI
same,"Early Clinical Response (ECR), number of subjects",[1]; ETP (48 to 72 hours),241
same,"Early Clinical Response (ECR), percent of subjects",[1]; ETP (48 to 72 hours),80.9%
same,"Early Clinical Response (ECR), % Difference iclaprim vs vancomycin",[1]; ETP,−0.13%
same,"Clinical cure, number of subjects",[1]; TOC (7 to 14 days after study drug discontinuation),251
same,"Clinical cure, % Difference iclaprim vs vancomycin",[1]; TOC,−2.77%
same,"Clinical cure, percent of subjects",[1]; TOC,84.2%
same,increase in AUC,[2],2.5 fold
same,increase in Cmax,[2],1.4 fold
